Experimental data: patent publication US20060025390A1, “Treatment of hormone allergy and related symptoms and disorders” (priority 2004, published 2006)

Tests used:
[1] = system: serum IgE anti-estrogen antibodies; assay: ELISA binding of IgE estrogen antibodies to different hormones in solid phase; set-up: species or system human; details: for IgE binding (optical density): hormone in solid phase, 405 nm; for IgE % reaction: relative to estrogen = 100
Protocol: (§1) The ELISA inhibition method was used to determine specificity and cross-reactivity between different hormones and to ensure the degree of human IgG, IgM and IgE estrogen or progesterone binding to estrogen or progesterone in solid phase. […] 100 μl of sera from three different patients with high IgG, IgM or IgE antibodies against 17-α-hydroxyprogesterone was added to all wells. After shaking and incubation for 1 hr at room temperature, addition of enzyme labeled anti-human IgG, IgM or IgE, repeat of incubation, washing, and addition of substrate, color development was measured at 405 nm. Results were calculated as percentage of anti-17-α-hydroxyprogesterone binding to 17-α-hydroxyprogesterone and other hormones. Also, anti-estrogen binding to estrogen and other hormones in solid phase by progesterone in liquid phase was performed and calculated in a similar manner.
(§2) Human sera containing 17-α-hydroxyprogesterone IgG-, IgM- and IgE-binding antibodies were reacted against progesterone, estrogen, hydrocortisone and cholesterol. In comparison to 100% binding of anti-17-α-hydroxyprogesterone-binding to 17-α-hydroxyprogesterone, the IgG anti-17-α-hydroxyprogesterone-binding to progesterone, estrogen, hydrocortisone and cholesterol was 69-77%, 25-30%, 39-53%, and less than 10% respectively (Table 4). The % binding of serum IgM and IgE anti-17-α-hydroxyprogesterone to 17-1-hydroxyprogesterone, progesterone, estrogen, hydrocortisone and cholesterol was similar to the binding of IgG. This binding of anti-17-α-hydroxyprogesterone to progesterone was the highest, followed by hydrocortisone, then estrogen, to almost no binding with cholesterol. Similar to this, human sera with IgG, IgM and IgE binding antibodies against estrogen were reacted with progesterone, 17-α-hydroxyprogesterone, hydrocortisone and cholesterol, in the presence of estrogen.

[2] = system: patients experiencing hormone allergy symptoms; assay: Clinical responses of hormone allergy symptoms to intradermal dilute progesterone (or estrogen); type: in vivo, human; details: for % of Patients who Respond: any relief of symptom; for % Improvement in Responding Patients: average of patients' estimates
From the text: Patients experiencing several hormone allergy symptoms experienced relief when administered dilute doses of progesterone either sublingually or intradermally.
The symptoms measured were irritation or pain in the neck, nose, eyes, throat, ear, skin, back, hips, upper extremities and lower extremities, headache, and shortness of breath. […]
Patients were designated as responding patients in Table 1 if they experienced any relief of the indicated symptom. Patients were also asked to estimate the amount of improvement in the symptom, an average of which is
In Table 2 the probability that positive results (i.e. patients responding to treatment) were due to random effects was calculated using standard statistical analysis of patient tests. It was assumed that if the treatment has no effect, there is a 50% chance that a patient will indicate a positive response and a 50% chance that a patient will indicate a negative response. From this assumption, coupled with the actual data, one may calculate the probability that positive responses are due to an actual effect of the treatment and not simply random effects. In general, results with a less than 1% chance of being random are considered highly significant. Results with a less than 5% chance of being random are normally conclusively labeled as nonrandom. Thus, the results observed for most of the symptoms in Table 2 are highly significant, with only the results for ear irritation and pain falling merely in the nonrandom category.
Hormone samples may be prepared in any way suitable for the intended administration route. For administration through intradermal injection, samples may be prepared as they were in the studies of Examples 2 and 3. Specifically, the progesterone was formulated from commercially available injectable progesterone. Each ml of the final formulation contained […] of progesterone and 10% benzyl alcohol as a preservative in sesame oil. 0.1 ml was administered per patient intradermally. Estrogen samples were similarly prepared.

[3] = system: serum IgG anti-17-α-hydroxyprogesterone antibodies; assay: ELISA binding of IgG 17-α-hydroxyprogesterone antibodies to different hormones in solid phase; set-up: species or system human; details: for IgG binding (optical density): hormone in solid phase, 405 nm; for IgG % reaction: relative to 17-α-hydroxyprogesterone = 100
Protocol: as §1, §2

[4] = Back, of 58 patients with symptom (Table 2)
[5] = Ear, of 35 patients with symptom (Table 2)
[6] = Eyes, of 94 patients with symptom (Table 2)
[7] = Headache, of 105 patients with symptom (Table 2)
[8] = Hips, of 26 patients with symptom (Table 2)
[9] = Lower Extremity, 0.5 mg intradermally
[10] = Lower Extremity, of 51 patients with symptom (Table 2)
[11] = Neck, of 146 patients with symptom (Table 2)
[12] = Nose, of 112 patients with symptom (Table 2)
[13] = Shortness of Breath, 0.5 mg intradermally
[14] = Shortness of Breath, of 144 patients with symptom (Table 2)
[15] = Skin, of 35 patients with symptom (Table 2)
[16] = Throat, of 94 patients with symptom (Table 2)
[17] = Upper Extremity, 0.5 mg intradermally
[18] = Upper Extremity, of 63 patients with symptom (Table 2)

With `CC(=O)[C@H]1CC[C@H]2[C@@H]3CCC4=CC(=O)CC[C@]4(C)[C@H]3CC[C@]12C` [Progesterone, progesterone] as the molecule, how does the “IgE binding (optical density)” value ([1]; sample 1) read?
Its value is 0.21.

And the IgE % reaction ([1]; sample 1)?
Its IgE % reaction is −26%.

And the “IgE binding (optical density)” value ([1]; sample 2)?
The value was 0.53.

What about the IgE % reaction ([1]; sample 2) of the same molecule?
Its IgE % reaction is −35%.

What about the “IgE binding (optical density)” value ([1]; sample 3) of the same molecule?
Its value is 0.62.

And the IgE % reaction ([1]; sample 3)?
The IgE % reaction was −39%.

And the “% of Patients who Respond” value ([2]; Back, 0.5 mg intradermally)?
Its value is 82%.

And the “% Improvement in Responding Patients” value ([2]; Back, 0.5 mg intradermally)?
Its value is 72%.

What about the “# of Responding Patients” value ([2]; Back, 0.5 mg intradermally, of 57 patients (Table 1)) of the same molecule?
The value was 47.

What about the “# of Responding Patients” value [2, 4] of the same molecule?
Its value is 48.

What about the “# of non-Responding Patients” value [2, 4] of the same molecule?
The value was 10.

What about the “% of Patients who Respond” value ([2]; Ear, 0.5 mg intradermally) of the same molecule?
Its value is 66%.

And the “% Improvement in Responding Patients” value ([2]; Ear, 0.5 mg intradermally)?
The value was 25%.

What about the “# of Responding Patients” value ([2]; Ear, 0.5 mg intradermally, of 35 patients (Table 1)) of the same molecule?
Its value is 23.

And the “# of Responding Patients” value [2, 5]?
The value was 23.

What about the “# of non-Responding Patients” value [2, 5] of the same molecule?
Its value is 12.

What about the “% of Patients who Respond” value ([2]; Eyes, 0.5 mg intradermally) of the same molecule?
The value was 81%.

And the “% Improvement in Responding Patients” value ([2]; Eyes, 0.5 mg intradermally)?
The value was 57%.

And the “# of Responding Patients” value ([2]; Eyes, 0.5 mg intradermally, of 90 patients (Table 1))?
Its value is 73.

And the “# of Responding Patients” value [2, 6]?
The value was 75.

What about the “# of non-Responding Patients” value [2, 6] of the same molecule?
The value was 19.

What about the “% of Patients who Respond” value ([2]; Headache, 0.5 mg intradermally) of the same molecule?
The value was 82%.

And the “% Improvement in Responding Patients” value ([2]; Headache, 0.5 mg intradermally)?
The value was 69%.

What about the “# of Responding Patients” value ([2]; Headache, 0.5 mg intradermally, of 103 patients (Table 1)) of the same molecule?
The value was 84.

And the “# of Responding Patients” value [2, 7]?
The value was 85.

And the “# of non-Responding Patients” value [2, 7]?
Its value is 20.

What about the “% of Patients who Respond” value ([2]; Hips, 0.5 mg intradermally) of the same molecule?
The value was 92%.

What about the “% Improvement in Responding Patients” value ([2]; Hips, 0.5 mg intradermally) of the same molecule?
Its value is 79%.

And the “# of Responding Patients” value ([2]; Hips, 0.5 mg intradermally, of 26 patients (Table 1))?
The value was 24.

And the “# of Responding Patients” value [2, 8]?
The value was 24.

What about the “# of non-Responding Patients” value [2, 8] of the same molecule?
Its value is 2.

What about the “% of Patients who Respond” value [2, 9] of the same molecule?
The value was 79%.

And the “% Improvement in Responding Patients” value [2, 9]?
The value was 76%.

What about the “# of Responding Patients” value ([2]; Lower Extremity, 0.5 mg intradermally, of 61 patients (Table 1)) of the same molecule?
The value was 48.

And the “# of Responding Patients” value [2, 10]?
Its value is 43.

And the “# of non-Responding Patients” value [2, 10]?
Its value is 8.

What about the “% of Patients who Respond” value ([2]; Neck, 0.5 mg intradermally) of the same molecule?
Its value is 72%.

And the “% Improvement in Responding Patients” value ([2]; Neck, 0.5 mg intradermally)?
Its value is 62%.

What about the “# of Responding Patients” value ([2]; Neck, 0.5 mg intradermally, of 144 patients (Table 1)) of the same molecule?
Its value is 104.

What about the “# of Responding Patients” value [2, 11] of the same molecule?
The value was 106.

And the “# of non-Responding Patients” value [2, 11]?
Its value is 40.

And the “% of Patients who Respond” value ([2]; Nose, 0.5 mg intradermally)?
The value was 82%.

And the “% Improvement in Responding Patients” value ([2]; Nose, 0.5 mg intradermally)?
Its value is 63%.

And the “# of Responding Patients” value ([2]; Nose, 0.5 mg intradermally, of 109 patients (Table 1))?
Its value is 89.

What about the “# of Responding Patients” value [2, 12] of the same molecule?
Its value is 92.

What about the “# of non-Responding Patients” value [2, 12] of the same molecule?
The value was 20.

And the “% of Patients who Respond” value [2, 13]?
Its value is 87%.

And the “% Improvement in Responding Patients” value [2, 13]?
Its value is 67%.

And the “# of Responding Patients” value ([2]; Shortness of Breath, 0.5 mg intradermally, of 142 patients (Table 1))?
Its value is 124.

What about the “# of Responding Patients” value [2, 14] of the same molecule?
Its value is 126.

And the “# of non-Responding Patients” value [2, 14]?
Its value is 18.

What about the “% of Patients who Respond” value ([2]; Skin, 0.5 mg intradermally) of the same molecule?
The value was 79%.

And the “% Improvement in Responding Patients” value ([2]; Skin, 0.5 mg intradermally)?
The value was 74%.

And the “# of Responding Patients” value ([2]; Skin, 0.5 mg intradermally, of 34 patients (Table 1))?
Its value is 27.

And the “# of Responding Patients” value [2, 15]?
The value was 27.

What about the “# of non-Responding Patients” value [2, 15] of the same molecule?
Its value is 8.

And the “% of Patients who Respond” value ([2]; Throat, 0.5 mg intradermally)?
The value was 76%.

What about the “% Improvement in Responding Patients” value ([2]; Throat, 0.5 mg intradermally) of the same molecule?
Its value is 64%.

What about the “# of Responding Patients” value ([2]; Throat, 0.5 mg intradermally, of 92 patients (Table 1)) of the same molecule?
The value was 70.

And the “# of Responding Patients” value [2, 16]?
The value was 71.

What about the “# of non-Responding Patients” value [2, 16] of the same molecule?
The value was 23.

What about the “% of Patients who Respond” value [2, 17] of the same molecule?
Its value is 80%.

What about the “% Improvement in Responding Patients” value [2, 17] of the same molecule?
The value was 75%.

And the “# of Responding Patients” value ([2]; Upper Extremity, 0.5 mg intradermally, of 50 patients (Table 1))?
The value was 40.

And the “# of Responding Patients” value [2, 18]?
Its value is 50.

And the “# of non-Responding Patients” value [2, 18]?
Its value is 13.

And the “effectiveness in relieving hormone allergy symptoms compared to several other antigens” value ([2]; dilute doses sublingually or intradermally)?
The value was “most effective”.

What about the “IgG anti-17-α-hydroxyprogesterone binding” value ([3]; in comparison to 100% binding to 17-α-hydroxyprogesterone, over three sera) of the same molecule?
Its value is 69-77%.

What about the “IgG binding (optical density)” value ([3]; sample 1) of the same molecule?
The value was 1.1.

And the IgG % reaction ([3]; sample 1)?
Its IgG % reaction is −69%.

What about the “IgG binding (optical density)” value ([3]; sample 2) of the same molecule?
The value was 0.73.

What about the IgG % reaction ([3]; sample 2) of the same molecule?
The IgG % reaction was −77%.

And the “IgG binding (optical density)” value ([3]; sample 3)?
Its value is 0.49.

What about the IgG % reaction ([3]; sample 3) of the same molecule?
Its IgG % reaction is −72%.
